Measured values reported in patent publication US4760136A, “Chartreusin derivatives and salts thereof” (Ishihara Sangyo Kaisha, Ltd., priority 1984, dated 1988).

Tests used:
P-388 leukemia cells = assay: Antitumor activity: P-388 leukemia cells inoculated intraperitoneally, drug administered intravenously, BDF1 mice; assay type: in vivo; conditions: Mus musculus, P388, iv, BDF1 mice, P-388 i.p., read-out: T/C (%) of MST; for response vs control in vivo at 20 mg/kg: dose b: 20 mg/kg × 3, i.v. on days 1, 5 and 9; for response vs control in vivo at 40 mg/kg: dose c: 40 mg/kg × 3, i.v. on days 1, 5 and 9; for response vs control in vivo at 80 mg/kg: dose f: 80 mg/kg × 3, i.v. on days 1, 5 and 9
How it was run: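 Drug dosing was intravenous on the first, fifth and ninth days after intraperitoneal inoculation of P-388 leukemia cells (1×10^6 per mouse) into BDF1 mice. Vehicles were physiological saline alone, or saline with small amounts of sodium carboxymethyl cellulose or Tween-80.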

[1] = Acute toxicity, intravenous (once), ddY mice; assay type: in vivo; conditions: mouse, in vivo, iv, formulated per Preparation Example
Excerpt: In Table 7 are shown acute toxicity values (LD50, mg/kg) in ddY mice in the case of intravenously administering (once) each of the compounds of this invention in the form of preparations shown in the Preparation Examples shown in Table 7.

| Compound | response vs control in vivo at 20 mg/kg (P-388 leukemia cells) | response vs control in vivo at 40 mg/kg (P-388 leukemia cells) | LD50 [1] | response vs control in vivo at 80 mg/kg (P-388 leukemia cells) | response vs control in vivo at 10 mg/kg (P-388 leukemia cells; dose a: 10 mg/kg × 3, i.v. on days 1, 5 and 9) |
| --- | --- | --- | --- | --- | --- |
| COC1C(O)C(C)OC(OC2C(Oc3cccc4c(OC(=O)COC(C)=O)c5c(=O)oc6ccc(C)c7c(=O)oc(c34)c5c67)OC(C)C3OC(c4ccccc4)OC32)C1O (centres unmarked) [Compound No. 148] | 185% | 250% | ≥ 40 mg/kg | – | – |
| COC1C(O)C(C)OC(OC2C(Oc3cccc4c(OC(=O)COC(=O)CCCl)c5c(=O)oc6ccc(C)c7c(=O)oc(c34)c5c67)OC(C)C3OC(c4ccccc4)OC32)C1O (centres unmarked) [Compound No. 149] | 203% | – | ≥ 40 mg/kg | – | – |
| COC1C(O)C(C)OC(OC2C(Oc3cccc4c(OC(=O)CC[S+](C)[O-])c5c(=O)oc6ccc(C)c7c(=O)oc(c34)c5c67)OC(C)C3OC(c4ccccc4)OC32)C1O (centres unmarked) [Compound No. 150] | 200% | 205% | ≥ 40 mg/kg | – | – |
| COC1C(O)C(C)OC(OC2C(Oc3cccc4c(OC(=O)C(C)OCc5ccccc5)c5c(=O)oc6ccc(C)c7c(=O)oc(c34)c5c67)OC(C)C3OC(c4ccccc4)OC32)C1O (centres unmarked) [Compound No. 151] | 155% | 224% | ≥ 40 mg/kg | – | – |
| COC1C(O)C(C)OC(OC2C(Oc3cccc4c(OC(=O)CCSC)c5c(=O)oc6ccc(C)c7c(=O)oc(c34)c5c67)OC(C)C3OC(c4ccccc4)OC32)C1O (centres unmarked) [Compound No. 152] | 157% | 210% | ≥ 40 mg/kg | – | – |
| COC1C(O)C(C)OC(OC2C(Oc3cccc4c(OC(=O)CCC(C)=O)c5c(=O)oc6ccc(C)c7c(=O)oc(c34)c5c67)OC(C)C3OC(c4ccccc4)OC32)C1O (centres unmarked) [Compound No. 153] | 203% | 243% | ≥ 40 mg/kg | – | – |
| COC1C(O)C(C)OC(OC2C(Oc3cccc4c(OC(=O)CCc5ccccc5)c5c(=O)oc6ccc(C)c7c(=O)oc(c34)c5c67)OC(C)C3OC(c4ccccc4)OC32)C1O (centres unmarked) [Compound No. 154] | 205% | 214% | ≥ 40 mg/kg | – | – |
| COC1C(O)C(C)OC(OC2C(Oc3cccc4c(OC(=O)C5CC5)c5c(=O)oc6ccc(C)c7c(=O)oc(c34)c5c67)OC(C)C3OC(c4ccsc4)OC32)C1O (centres unmarked) [Compound No. 155] | 171% | 183% | ≥ 40 mg/kg | – | – |
| COC1C(O)C(C)OC(OC2C(Oc3cccc4c(OC(=O)CCC(C)=O)c5c(=O)oc6ccc(C)c7c(=O)oc(c34)c5c67)OC(C)C3OC(C)(C)OC32)C1O (centres unmarked) [Compound No. 156] | – | 160% | ≥ 80 mg/kg | 218% | – |
| COC1C(O)C(C)OC(OC2C(Oc3cccc4c(OC(=O)CCCl)c5c(=O)oc6ccc(C)c7c(=O)oc(c34)c5c67)OC(C)C3OC(C)(C)OC32)C1O (centres unmarked) [Compound No. 157] | – | 153% | ≥ 80 mg/kg | 201% | – |
| COC1C(O)C(C)OC(OC2C(Oc3cccc4c(OC(=O)c5cccc(N(C)C)c5)c5c(=O)oc6ccc(C)c7c(=O)oc(c34)c5c67)OC(C)C3OC(c4cccc(F)c4)OC32)C1O (centres unmarked) [Compound No. 158, 6-O-(m-Dimethylaminobenzoyl)-3',4'-O-(m-Fluorobenzylidene)-Chartreusin] | – | 174% | ≥ 80 mg/kg | 205% | – |
| COC1C(O)C(C)OC(OC2C(Oc3cccc4c(OC(=O)CC(C)C)c5c(=O)oc6ccc(C)c7c(=O)oc(c34)c5c67)OC(C)C3OC(c4ccc(F)cc4)OC32)C1O (centres unmarked) [Compound No. 159] | – | 171% | ≥ 40 mg/kg | 216% | – |
| C=CCCC(=O)Oc1c2cccc(OC3OC(C)C4OC(c5cccc([N+](=O)[O-])c5)OC4C3OC3OC(C)C(O)C(OC)C3O)c2c2oc(=O)c3c(C)ccc4oc(=O)c1c2c43 (centres unmarked) [Compound No. 160] | – | 160% | ≥ 80 mg/kg | 218% | – |
| C/C=C(\C)C(=O)Oc1c2cccc(OC3OC(C)C4OC(c5cccc(C(F)(F)F)c5)OC4C3OC3OC(C)C(O)C(OC)C3O)c2c2oc(=O)c3c(C)ccc4oc(=O)c1c2c43 (stereo not drawn) [Compound No. 161, 6-O-(Trans-2-Methyl-2-Butenoyl)-3',4'-O-(m-Trifluoromethylbenzylidene)Chartreusin] | – | 169% | ≥ 80 mg/kg | 234% | – |
| COC1C(O)C(C)OC(OC2C(Oc3cccc4c(OC(=O)CCC(C)=O)c5c(=O)oc6ccc(C)c7c(=O)oc(c34)c5c67)OC(C)C3OC(c4cccc(C(F)(F)F)c4)OC32)C1O (centres unmarked) [Compound No. 162] | – | 157% | ≥ 80 mg/kg | 243% | – |
| COC1C(O)C(C)OC(OC2C(Oc3cccc4c(OC(=O)CC(C)C)c5c(=O)oc6ccc(C)c7c(=O)oc(c34)c5c67)OC(C)C3OC(c4cccc(Br)c4)OC32)C1O (centres unmarked) [Compound No. 163] | – | 156% | ≥ 80 mg/kg | 227% | – |
| COC1C(O)C(C)OC(OC2C(Oc3cccc4c(OC(=O)CCCl)c5c(=O)oc6ccc(C)c7c(=O)oc(c34)c5c67)OC(C)C3OC(c4ccccc4)OC32)C1O (centres unmarked) [Compound No. 164] | 198% | – | ≥ 40 mg/kg | – | – |
| COC1C(O)C(C)OC(OC2C(Oc3cccc4c(OC(=O)CC[N+](=O)[O-])c5c(=O)oc6ccc(C)c7c(=O)oc(c34)c5c67)OC(C)C3OC(c4ccccc4)OC32)C1O (centres unmarked) [Compound No. 166] | – | – | ≥ 30 mg/kg | – | 138% |
| COC1C(O)C(C)OC(OC2C(Oc3cccc4c(OC(=O)COC(=O)c5ccccc5)c5c(=O)oc6ccc(C)c7c(=O)oc(c34)c5c67)OC(C)C3OC(c4ccccc4)OC32)C1O (centres unmarked) [Compound No. 167] | 198% | – | ≥ 40 mg/kg | – | – |
| COC1C(O)C(C)OC(OC2C(Oc3cccc4c(OC(=O)CCS(C)(=O)=O)c5c(=O)oc6ccc(C)c7c(=O)oc(c34)c5c67)OC(C)C3OC(c4ccccc4)OC32)C1O (centres unmarked) [Compound No. 168] | 167% | – | ≥ 40 mg/kg | – | – |
| COC1C(O)C(C)OC(OC2C(Oc3cccc4c(OC(=O)CC(C)C)c5c(=O)oc6ccc(C)c7c(=O)oc(c34)c5c67)OC(C)C3OC(c4ccccc4)OC32)C1O (centres unmarked) [Compound No. 169, 6-O-(3-Methyl-n-Butyryl)-3',4'-O-Benzylidene-Chartreusin] | 202% | – | ≥ 40 mg/kg | – | – |
| COC1C(O)C(C)OC(OC2C(Oc3cccc4c(OC(=O)C(C)(C)C)c5c(=O)oc6ccc(C)c7c(=O)oc(c34)c5c67)OC(C)C3OC(c4ccccc4)OC32)C1O (centres unmarked) [Compound No. 170] | 198% | – | ≥ 40 mg/kg | – | – |
| COC1C(O)C(C)OC(OC2C(Oc3cccc4c(OC(=O)CC(C)C)c5c(=O)oc6ccc(C)c7c(=O)oc(c34)c5c67)OC(C)C3OC(C)(C)OC32)C1O (centres unmarked) [Compound No. 171] | – | 186% | ≥ 80 mg/kg | 212% | – |
| COC1C(O)C(C)OC(OC2C(Oc3cccc4c(OC(=O)C(Br)C(C)C)c5c(=O)oc6ccc(C)c7c(=O)oc(c34)c5c67)OC(C)C3OC(C)(C)OC32)C1O (centres unmarked) [Compound No. 172] | – | 148% | ≥ 80 mg/kg | 195% | – |
| C/C=C(\C)C(=O)Oc1c2cccc(OC3OC(C)C4OC(C)(C)OC4C3OC3OC(C)C(O)C(OC)C3O)c2c2oc(=O)c3c(C)ccc4oc(=O)c1c2c43 (centres unmarked) [Compound No. 173] | – | 152% | ≥ 80 mg/kg | 192% | – |
| COC1C(O)C(C)OC(OC2C(Oc3cccc4c(OC(=O)CSc5ccccc5)c5c(=O)oc6ccc(C)c7c(=O)oc(c34)c5c67)OC(C)C3OC(C)(C)OC32)C1O (centres unmarked) [Compound No. 174] | – | 148% | ≥ 80 mg/kg | 198% | – |
| C=CCCC(=O)Oc1c2cccc(OC3OC(C)C4OC(C)(C)OC4C3OC3OC(C)C(O)C(OC)C3O)c2c2oc(=O)c3c(C)ccc4oc(=O)c1c2c43 (centres unmarked) [Compound No. 175] | – | 145% | ≥ 80 mg/kg | 208% | – |
| CCOCCC(=O)Oc1c2cccc(OC3OC(C)C4OC(C)(C)OC4C3OC3OC(C)C(O)C(OC)C3O)c2c2oc(=O)c3c(C)ccc4oc(=O)c1c2c43 (centres unmarked) [Compound No. 176] | – | 155% | ≥ 80 mg/kg | 208% | – |
